# Experimental data as given in patent US6660734B1, “Oxazinones having antibacterial activity” (Simon Fraser University, priority 1997, dated 2003).
# Assays:
# [1] = tested on: glutamate-aspartate transaminase; conditions: according to Khomutov; cited from earlier work
# tuberculosis bacilli = conditions: according to Khomutov; cited from earlier work
# Micrococcus luteus = test: Filter disc bioassay on agar plates seeded with Micrococcus luteus; assay type: cell-based; conditions: for ZONE SIZE: M. luteus, overnight 37° C.
# Protocol: Samples were applied to filter discs in the amounts indicated. The discs were applied to agar plates seeded with Micrococcus luteus, and the plates were incubated overnight at 37° C. The results are illustrated in FIG. 5 and summarized in the following Table 1: Samples were assayed as in Example 3, with the results summarized in the following Table 2: […]
compound,measurement,setting,value
"NC1CCONC1=O (racemic) [cyclocanaline, 4-amino-tetrahydro-1,2-oxazin-3-one]",inhibition of glutamate-aspartate transaminase,[1],known to lnhibit glutamate-aspartate transaminase
same,activity against tuberculosis bacilli,tuberculosis bacilli,exhibits activity against tuberculosis bacilli
"O=C(O)CN1OC=C(O)CC1=O [Example 1, 2-Carboxymethyl-5-hydroxy-1,2-oxazin-3-one]",antibacterial activity,"Micrococcus luteus; in words, from Tables 1 and 2",weak antibacterial activity
same,"antibacterial activity, times less than that of penicillin","Micrococcus luteus; relative to penicillin, from Tables 1 and 2",at least 1000 times
"CC(CN1OC=C(O)CC1=O)C(=O)O (stereo not shown) [Example 2, 2-[2-Carboxypropyl]-5-hydroxy-1,2-oxazin-3-one]","activity, times the activity of the carboxymethyl product","Micrococcus luteus; relative to product of Example 1, from Tables 1 and 2",approximately 50 times
CC1=C(C(=O)O)N2C(=O)[C@@H](NC(=O)Cc3ccccc3)[C@H]2SC1 [desacetoxycephalosporin G],ZONE SIZE,"Micrococcus luteus; Table 2, 2.5 micrograms on filter disc",2.5 cm
CC1(C)S[C@@H]2[C@H](NC(=O)Cc3ccccc3)C(=O)N2[C@H]1C(=O)O [penicillin G],ZONE SIZE,"Micrococcus luteus; Table 1, 0.1 micrograms on filter disc",1.6 cm
